Results taken from patent US6596289B1, “Anti-cellulite pantyhose” (priority 1998, dated 2003).

Experiment: Extraction and measurement of candidate molecules from loaded pantyhose in buffer
Type: physicochemical
Conditions: for bonding to the fabric: conclusion from data of Table I; for Micrograms per/cm^2 @ 2 hr (amount extracted) / Micrograms per/cm @ 4 hr (amount extracted): swatch of treated fabric immersed in buffer solution; for Micrograms per/cm @ 4 hr (amount extracted): four hours
Method: Step 1: Determining UV Max Absorbance nm of Test Substances
Prepare 0.2% aqueous solutions of the substance to be tested, and run a UV/VIS scan on a scanning spectrophotometer. Note the peak absorbance level of the scan. The wave length at which this occurs is the UV Max value for that candidate.
Step 2: Running Standard Curves of Candidate Molecules
Prepare standards of the test substances at the following concentrations: 400 uM, 200 uM, 100 uM, 50 uM and 25 uM. Read at the appropriate wavelength. Plot the absorbance readings vs candidate concentration to check linearity.
Step 3: Loading Pantyhose with Candidate Molecules a. Wash pantyhose two times with water. b. Treat pantyhose with 1% solution of polyethylenimine (PEI) with constant agitation for 30 minutes. c. Wash pantyhose with water. d. Treat pantyhose with 0.2% of the test substance with constant agitation for three hours. e. Wash pantyhose and allow to dry.
Step 4: Extraction and Measurement of Candidate Molecules from Pantyhose Six sections were removed from each pair of hose, two sections from each of the foot, calf and thigh. A two piece, interlocking circular template was used. This template provided a way to obtain consistent sample size and also held the hose sections in position for sample extraction. Each template containing the pantyhose section was placed in 10 ml of buffer for 4 hours. An untreated pair of pantyhose was used as the blank and tested the same as the samples. At the end of two hours, and again at 4 hours, the buffer solution was read at the appropriate wave length using a quartz curette. Results were calculated from the standard curve and reported in micrograms/square centimeter (ug/cm^2).

| SMILES | bonding to the fabric | Micrograms per/cm^2 @ 2 hr (amount extracted) [Micrograms per/cm^2] | Micrograms per/cm @ 4 hr (amount extracted) [Micrograms per/cm] |
| --- | --- | --- | --- |
| O=C(O)CCCC[C@@H]1CCSS1 (racemic) [Lipoic Acid, lipoic acid] | bind in adequate degrees | 1.2 | 1.5 |
| O=C1O[C@H]([C@@H](O)CO)C(O)=C1O [Ascorbic Acid, ascorbic acid] | bind in adequate degrees | 0.6 | 0.7 |
| O=c1c(-c2ccc(O)cc2)coc2cc(O)cc(O)c12 [Genistein, 4′,5,7-trihydroxyisoflavone] | most strongly bonded | 15.0 | 15.1 |
